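Compound exposure: 48 hours, 5 concentrations, 96-well plates. GI50 marks 50% less growth.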 Activity calls are given as the source filed them. Cut-off read from the data, not from the text of the source: active = GI50 up to about 1.1 µM and inactive = higher.
Legend:
Assay in all cases: DTP human tumour cell line panel, 48 h
PC-3 = tested on: PC-3
LOX IMVI = tested on: LOX IMVI
OVCAR-8 = tested on: OVCAR-8
NCI-H522 = tested on: NCI-H522
SK-MEL-2 = tested on: SK-MEL-2
EKVX = tested on: EKVX
TK-10 = tested on: TK-10
K562 = tested on: K562
SK-OV-3 = tested on: SK-OV-3
OVCAR-4 = tested on: OVCAR-4
CAKI-1 = tested on: CAKI-1
NCI/ADR-RES = tested on: NCI/ADR-RES
786-0 = tested on: 786-0
DU-145 = tested on: DU-145
A498 = tested on: A498
U-251 = tested on: U-251
UO-31 = tested on: UO-31
HCC 2998 = tested on: HCC 2998
HCT-15 = tested on: HCT-15
RPMI-8226 = tested on: RPMI-8226

Structure (SMILES) | GI50 (PC-3) | GI50 (LOX IMVI) | GI50 (OVCAR-8) | GI50 (NCI-H522) | GI50 (SK-MEL-2) | GI50 (EKVX) | GI50 (TK-10) | GI50 (K562) | GI50 (SK-OV-3) | GI50 (OVCAR-4) | GI50 (CAKI-1) | GI50 (NCI/ADR-RES) | GI50 (786-0) | GI50 (DU-145) | GI50 (A498) | GI50 (U-251) | GI50 (UO-31) | GI50 (HCC 2998) | GI50 (HCT-15) [µM] | GI50 (RPMI-8226)
CCCCCCCCCC(=O)OCC1(CO)C/C(=C/CC(C(C)C)C(C)C)C(=O)O1 (stereo not drawn) | 42.4 µM (inactive) | 21.6 µM (inactive) | 47.1 µM (inactive) | 19.4 µM (inactive) | > 100 µM (inactive) | 70.1 µM (inactive) | 77.6 µM (inactive) | 18.3 µM (inactive) | > 100 µM (inactive) | 61.2 µM (inactive) | 16 µM (inactive) | > 100 µM (inactive) | 35.7 µM (inactive) | 71 µM (inactive) | 53.3 µM (inactive) | 26.7 µM (inactive) | 28.7 µM (inactive) | 39.3 µM (inactive) | 84.5 | –
N#CCc1nc(-c2cc3ccccc3oc2=O)cs1 | 29.8 µM (inactive) | 56.9 µM (inactive) | 63.2 µM (inactive) | 15.9 µM (inactive) | 25.4 µM (inactive) | 41.4 µM (inactive) | > 100 µM (inactive) | 45.8 µM (inactive) | > 100 µM (inactive) | 44.1 µM (inactive) | > 100 µM (inactive) | 79.6 µM (inactive) | > 100 µM (inactive) | > 100 µM (inactive) | – | > 100 µM (inactive) | 40.4 µM (inactive) | > 100 µM (inactive) | 35.8 | 33.7 µM (inactive)
O=C(Nc1cc2c(=O)oc3ccccc3c2oc1=O)c1cccnc1 | > 100 µM (inactive) | > 100 µM (inactive) | 45 µM (inactive) | > 100 µM (inactive) | 83.2 µM (inactive) | > 100 µM (inactive) | > 100 µM (inactive) | > 100 µM (inactive) | > 100 µM (inactive) | > 100 µM (inactive) | > 100 µM (inactive) | > 100 µM (inactive) | > 100 µM (inactive) | > 100 µM (inactive) | – | 35.6 µM (inactive) | > 100 µM (inactive) | > 100 µM (inactive) | > 100 | –
COc1ccc(OC)c(C2CCCc3c2cnc2nc(N)nc(N)c32)c1 (stereo not drawn) | > 71.1 µM (inactive) | < 0.01 µM (active) | < 0.01 µM (active) | < 0.0392 µM (active) | > 100 µM (inactive) | > 100 µM (inactive) | 0.0217 µM (active) | < 0.01 µM (active) | – | > 100 µM (inactive) | 0.0982 µM (active) | 1.04 µM (active) | < 0.01 µM (active) | 0.0132 µM (active) | – | – | – | < 0.01 µM (active) | < 0.01 | 0.0695 µM (active)
COC(=O)Nc1nc(=O)c2ccccc2[nH]1 | > 100 µM (inactive) | – | > 100 µM (inactive) | 50.1 µM (inactive) | > 100 µM (inactive) | > 100 µM (inactive) | > 100 µM (inactive) | 31.1 µM (inactive) | 65.3 µM (inactive) | > 100 µM (inactive) | > 100 µM (inactive) | > 100 µM (inactive) | > 100 µM (inactive) | > 100 µM (inactive) | > 10 µM (inactive) | 43.8 µM (inactive) | 32.1 µM (inactive) | > 100 µM (inactive) | > 100 | –
COC(=O)C1=C(C(=O)OC)SC(=C2SCSC3=C2SC(C(=O)OC)=C(C(=O)OC)C32SC3=C(CCCC3)S2)S1 | > 100 µM (inactive) | > 100 µM (inactive) | > 100 µM (inactive) | > 100 µM (inactive) | > 100 µM (inactive) | > 100 µM (inactive) | 32.4 µM (inactive) | > 100 µM (inactive) | > 100 µM (inactive) | > 100 µM (inactive) | > 100 µM (inactive) | > 100 µM (inactive) | 74.1 µM (inactive) | > 100 µM (inactive) | 99.8 µM (inactive) | 47.6 µM (inactive) | > 100 µM (inactive) | > 100 µM (inactive) | > 100 | –
CC1=C(C(=O)OC(C)C)C(c2cccc([N+](=O)[O-])c2)C(C(=O)OC(CO[N+](=O)[O-])CO[N+](=O)[O-])=C(C)N1 (stereo not drawn) | 2.05 µM (inactive) | 3.08 µM (inactive) | 3.85 µM (inactive) | 1.85 µM (inactive) | 2.39 µM (inactive) | 4.37 µM (inactive) | 8.07 µM (inactive) | 2.76 µM (inactive) | 7.01 µM (inactive) | 2.81 µM (inactive) | 3.99 µM (inactive) | 2.45 µM (inactive) | 3.56 µM (inactive) | 11.4 µM (inactive) | – | 2.24 µM (inactive) | 3.44 µM (inactive) | 4.53 µM (inactive) | 2.86 | 1.05 µM (active)
CN(NC(=O)CCCl)C1=NCCN1 | > 100 µM (inactive) | > 100 µM (inactive) | > 100 µM (inactive) | > 100 µM (inactive) | > 100 µM (inactive) | > 100 µM (inactive) | > 100 µM (inactive) | > 100 µM (inactive) | > 100 µM (inactive) | > 100 µM (inactive) | – | > 100 µM (inactive) | > 100 µM (inactive) | > 100 µM (inactive) | > 100 µM (inactive) | > 100 µM (inactive) | > 100 µM (inactive) | > 100 µM (inactive) | > 100 | > 100 µM (inactive)
COC(=O)[C@@H]1C[C@]2(CC=C(C)C)c3ccccc3N(S(=O)(=O)c3ccccc3)[C@@H]2N1C(=O)OC | 17 µM (inactive) | 21.5 µM (inactive) | 20.3 µM (inactive) | 10.3 µM (inactive) | 5.96 µM (inactive) | 3.83 µM (inactive) | 32 µM (inactive) | 9.55 µM (inactive) | 10.6 µM (inactive) | 18.1 µM (inactive) | 27.2 µM (inactive) | 10.4 µM (inactive) | 25.1 µM (inactive) | > 100 µM (inactive) | – | 13.3 µM (inactive) | 28.8 µM (inactive) | 10.6 µM (inactive) | 10.4 | 6.67 µM (inactive)
O=C(Cc1ccc(O)c(O)c1)NCc1c[nH]c2ccccc12 | 47.1 µM (inactive) | – | 71.6 µM (inactive) | 32.6 µM (inactive) | > 100 µM (inactive) | 43.9 µM (inactive) | 16.4 µM (inactive) | 38.5 µM (inactive) | > 100 µM (inactive) | 37 µM (inactive) | 31.2 µM (inactive) | 46.6 µM (inactive) | 33.7 µM (inactive) | 29.1 µM (inactive) | > 100 µM (inactive) | – | 42.3 µM (inactive) | 62.2 µM (inactive) | 61.1 | 18.1 µM (inactive)
CC(=O)N(C(C)=O)c1cc2c3c(c1)CCCN3CCC2 | > 10 µM (inactive) | > 10 µM (inactive) | > 10 µM (inactive) | > 10 µM (inactive) | > 10 µM (inactive) | > 10 µM (inactive) | > 10 µM (inactive) | > 10 µM (inactive) | > 10 µM (inactive) | > 10 µM (inactive) | > 10 µM (inactive) | > 10 µM (inactive) | > 10 µM (inactive) | > 10 µM (inactive) | > 10 µM (inactive) | > 10 µM (inactive) | – | > 10 µM (inactive) | > 10 | > 10 µM (inactive)
Cc1cc(S(=O)(=O)N2CCNNC2=O)c(S)cc1Cl | > 100 µM (inactive) | 28.8 µM (inactive) | > 100 µM (inactive) | 22.5 µM (inactive) | > 100 µM (inactive) | > 100 µM (inactive) | > 100 µM (inactive) | 37.2 µM (inactive) | – | > 100 µM (inactive) | 33.5 µM (inactive) | > 100 µM (inactive) | 19.9 µM (inactive) | > 100 µM (inactive) | > 100 µM (inactive) | > 100 µM (inactive) | > 100 µM (inactive) | > 100 µM (inactive) | 56.5 | 71.4 µM (inactive)
O=S1(=O)OCCOS(=O)(=O)C1(F)Br | > 100 µM (inactive) | > 100 µM (inactive) | > 100 µM (inactive) | > 100 µM (inactive) | > 100 µM (inactive) | > 100 µM (inactive) | > 100 µM (inactive) | > 100 µM (inactive) | > 100 µM (inactive) | > 100 µM (inactive) | > 100 µM (inactive) | > 100 µM (inactive) | > 100 µM (inactive) | > 100 µM (inactive) | – | > 100 µM (inactive) | > 100 µM (inactive) | > 100 µM (inactive) | > 100 | > 100 µM (inactive)
Cc1cc(=O)oc2c(CNC(C)C(=O)O)c(O)ccc12 (stereo not drawn) | > 100 µM (inactive) | > 100 µM (inactive) | > 100 µM (inactive) | > 100 µM (inactive) | > 100 µM (inactive) | > 100 µM (inactive) | 95.7 µM (inactive) | > 100 µM (inactive) | > 100 µM (inactive) | > 100 µM (inactive) | > 100 µM (inactive) | > 100 µM (inactive) | > 100 µM (inactive) | > 100 µM (inactive) | – | > 100 µM (inactive) | 36.9 µM (inactive) | > 100 µM (inactive) | > 100 | > 100 µM (inactive)
Cc1nc(N)c(N2CCN(C(=O)O)CC2)c(O)n1 | > 100 µM (inactive) | > 100 µM (inactive) | > 100 µM (inactive) | > 100 µM (inactive) | > 100 µM (inactive) | > 100 µM (inactive) | > 100 µM (inactive) | > 100 µM (inactive) | – | > 100 µM (inactive) | – | > 100 µM (inactive) | > 100 µM (inactive) | > 100 µM (inactive) | > 100 µM (inactive) | > 100 µM (inactive) | > 100 µM (inactive) | > 100 µM (inactive) | > 100 | > 100 µM (inactive)

— ChEMBL document CHEMBL1201862, “PubChem BioAssay data set” (2004)
